The values that follow are results of earlier work, collected in patent US20200360403A1, “OPTHALMIC COMPOSITIONS FOR INHIBITING CLOUDING OF THE OCULAR LENS” (priority 2019, published 2020).

In data set [1] the test system is cffl-crystallins. The note with it: compared to ATP.
The test system of data set [2] is aggregated lens protein. The note with it: all studies by Daszynski et al.

For `C[C@H](CCCC(C)(C)O)[C@H]1CC[C@H]2[C@@H]3CC=C4C[C@@H](O)CC[C@]4(C)[C@H]3CC[C@]12C` [25-hydroxycholesterol], the “binding scores for good predictive binding to the crystallins” value in data set [1] is listed as “failed to reach the acceptable threshold binding scores”. In addition, the “anti-cataractogenic activity or binding of aggregated lens protein to dissolve cataracts” value in data set [2] is recorded as “failed to provide evidence”.

Turning to `CC(C)=CCC[C@@H](C)[C@H]1CC[C@@]2(C)C3=C(CC[C@]12C)[C@@]1(C)CC[C@H](O)C(C)(C)[C@@H]1CC3` [lanosterol], in data set [1], the “binding scores for good predictive binding to the crystallins” value was “failed to reach the acceptable threshold binding scores”. The “anti-cataractogenic activity or binding of aggregated lens protein to dissolve cataracts” value in data set [2] is recorded as “failed to provide evidence”.
